Results from patent US12612389B2, “Benzofuran-based N-acylhydrazone derivative and pharmaceutical composition comprising same” (KOREA RESEARCH INSTITUTE OF BIOSCIENCE AND BIOTECHNOLOGY, priority 2019, dated 2026).

How the values were obtained:
786-O = experiment: Anti-proliferative activity in other cancer cell lines (MTT); format: cell-based; conditions: Homo sapiens, 786-0, 96 h, Kidney, 4 days
Procedure: (§1) HeLa cells (American Type Culture Collection: ATCC, USA), a human cervical cancer cell line, were seeded in a 96-well plate at 3×10^3 cells/well, and the cells were then treated with compounds of Examples or Comparative Example according to the present invention and grown for 2 days. Then, MTT (3-(4,5-dimethylthiazol-2-yl)-2,5-diphenyltetrazolium bromide) reagent was added at 10 μL/well. After 2 hours, absorbance was measured at “OD 450” and statistical values were obtained using Prism™6 program. The data shown in Table below are mean values of results obtained by repeating the analysis twice.
(§2) Specifically, various cancer cell lines were cultured in a microtiter plate (1-3×10^3 cells/well), treated with the compound of Example 4 according to the present invention, and cultured for 4 days. Cytotoxicity was tested by MTT assay in the same manner as in Experimental Example 1-1, and IC50 was obtained by a log-dose response curve. The data shown in Table below are mean values of results obtained by repeating the analysis three times.

A431 = experiment: as above; format: cell-based; conditions: Homo sapiens, A-431, 96 h, Skin, 4 days
Procedure: as §1, §2

CCRF-CEM = experiment: as above; format: cell-based; conditions: Homo sapiens, 96 h, Peripheral blood, 4 days
Procedure: as §1, §2

Colo 205 = experiment: as above; format: cell-based; conditions: Homo sapiens, 96 h, Colon, 4 days
Procedure: as §1, §2

DU145 = experiment: as above; format: cell-based; conditions: Homo sapiens, DU-145, 96 h, Prostate, 4 days
Procedure: as §1, §2

HCC1954 = experiment: as above; format: cell-based; conditions: Homo sapiens, 96 h, Breast, 4 days
Procedure: as §1, §2

HCT 116 = experiment: as above; format: cell-based; conditions: Homo sapiens, 96 h, Colon, 4 days
Procedure: as §1, §2

HCT-15 = experiment: as above; format: cell-based; conditions: Homo sapiens, 96 h, Colon, 4 days
Procedure: as §1, §2

K562 = experiment: as above; format: cell-based; conditions: Homo sapiens, 96 h, Marrow (leukemia), 4 days
Procedure: as §1, §2

NCI-H226 = experiment: as above; format: cell-based; conditions: Homo sapiens, 96 h, Lung, 4 days
Procedure: as §1, §2

NCI-H460 = experiment: as above; format: cell-based; conditions: Homo sapiens, 96 h, Lung, 4 days
Procedure: as §1, §2

RPMI-8226 = experiment: as above; format: cell-based; conditions: Homo sapiens, 96 h, Marrow (leukemia), 4 days
Procedure: as §1, §2

SK-MEL 5 = experiment: as above; format: cell-based; conditions: Homo sapiens, 96 h, Skin, 4 days
Procedure: as §1, §2

U373MG = experiment: as above; format: cell-based; conditions: Homo sapiens, U373 MG, 96 h, Brain, 4 days
Procedure: as §1, §2

MEF (mouse) = experiment: Cytotoxicity in normal cells (MTT); format: cell-based; conditions: 96 h, Normal cell, 4 days
HDF (human) = experiment: Cytotoxicity in normal cells (MTT); format: cell-based; conditions: 96 h, Normal cell, 4 days
HeLa CCL2 cell line = experiment: Effect test on cell cycle progression (propidium iodine, FACS); format: cell-based, human
[1] = Mouse toxicity test (repeated intraperitoneal injection); format: in vivo, ICR mice; conditions: for Survival rate (%): n = 3, i.p., 10 injections
Procedure: All animal experiments and procedures were performed in accordance with ethical standards under the approval of the Institutional Animal Care and Use Committee (IACUC) of the Korea Research Institute of Bioscience and Biotechnology (KRIBB). ICR mice were supplied by Daehan Biolink Co., Ltd (Korea). All mice were housed in sterile animal isolation facilities. All in vivo experiments were performed using 6-8 week old mice.
Acute toxicity test of the compound of Example 4 was performed at the Laboratory Animal Resource Center of the Korea Research Institute of Bioscience and Biotechnology. ICR mice (6-8 weeks old) were acclimatized for up to 10 days before the experiment, and then 3 mice were injected with the drugs. The Example compound was mixed with a solvent and injected intraperitoneally, and after drug treatment, clinical symptoms were observed twice within 24 hours, and additional drug treatment was performed up to 10 times as scheduled. The mice were weighed 5 times as scheduled.
100 mg/kg of the compound of Example 4 was dissolved in a solvent (N′,N′-dimethylacetamide/Kolliphor/2-hydroxypropyl-β-cyclodextrin (10% concentration of distilled water solution)=40:10:50). When the concentration became thicker than that, the reaction solution immediately precipitated. The solution in which the compound of Example 4 was dissolved from 12.5 mg/kg to 100 mg/kg was injected into the peritoneal cavity of mice 10 times […] in a volume of 100 μL (see FIG. 8A). All animals survived to the final day, and no particular problems were seen by visual observation (see Table 13 and FIG. 8A).

[2] = design: species or system ICR mice; conditions: mouse, in vivo
Procedure: The experimental apparatus was constructed similarly to that used in the paper described by Reyes-Mendez et al. (2018), and was composed of a black acrylic fence (floor area of […] and wall height of 40 cm). The floor surface was divided into 25 squares each having a size of 10×10 cm. For this experiment, mice were placed on the center of the floor and spontaneous activities thereof were recorded for 7 minutes from the top. After the experiment, the experimental apparatus was thoroughly washed with 30% ethanol. Three observers, unaware whether the drug was treated or not, analyzed the first 5 minutes of recorded video to count the number of squares the mouse passed, and add up the time during which the mouse stayed without moving, and the number of times the mouse was groomed or shaken, and the like. Based on the contents analyzed above, the time during which the mouse stayed in the central zone, speed, and total moving distance were calculated. A case where the two-tailed probability value was less than 0.05 (p<0.05) was considered statistically significant.
No statistically significant experimental groups were found as results of open-field experiments in mice.

Q: For `CCOCCn1c(Cl)c(/C=N/NC(=O)c2cc3cc(C)ccc3o2)c2ccccc21` [Example 4, (E)-N′-[(2-chloro-1-(2-ethoxyethyl)-1H-indol-3-yl]methylene}-5-methylbenzofuran-2-carbohydrazide], which IC50 (786-O) is on record?
A: 0.13 ± 0.05 µM

Q: And the IC50 (A431)?
A: 0.22 ± 0.017 µM

Q: And the IC50 (CCRF-CEM)?
A: 0.34 ± 0.02 µM

Q: What about the IC50 (Colo 205) of the same compound?
A: 0.36 ± 0.49 µM

Q: And the IC50 (DU145)?
A: 0.49 ± 0.09 µM

Q: What about the IC50 (HCC1954) of the same compound?
A: 0.41 ± 0.05 µM

Q: What about the IC50 (HCT 116) of the same compound?
A: 0.45 ± 0.22 µM

Q: What about the IC50 (HCT-15) of the same compound?
A: 0.28 ± 0.07 µM

Q: And the IC50 (K562)?
A: 0.47 ± 0.012 µM

Q: And the IC50 (NCI-H226)?
A: 0.42 ± 0.06 µM

Q: And the IC50 (NCI-H460)?
A: 0.5 ± 0.09 µM

Q: What about the IC50 (RPMI-8226) of the same compound?
A: 0.52 ± 0.13 µM

Q: What about the IC50 (SK-MEL 5) of the same compound?
A: 0.46 ± 0.14 µM

Q: What about the IC50 (U373MG) of the same compound?
A: 0.36 ± 0.01 µM

Q: What about the IC50 (MEF (mouse)) of the same compound?
A: 4.01 ± 4.58 µM

Q: What about the IC50 (HDF (human)) of the same compound?
A: 27 ± 7.89 µM

Q: What about the “number of cells in G2/M phase as a percentage” value (HeLa CCL2 cell line; 0.2 μM, FACS) of the same compound?
A: 82.36%

Q: What about the “cells stopped in the mitotic phase” value (HeLa CCL2 cell line; 16 hours post treatment) of the same compound?
A: ≥ 80%

Q: What about the “Effect (μM): concentration at which cells were collected in the mitotic phase” value (HeLa CCL2 cell line; FACS) of the same compound?
A: 0.2 µM

Q: And the IC50 (HeLa CCL2 cell line; Homo sapiens, as stated in text on Table 5)?
A: 0.2 µM

Q: What about the “Survival rate (%)” value ([1]; 12.5 mg/kg) of the same compound?
A: 100%

Q: What about the “Survival rate (%)” value ([1]; 25 mg/kg) of the same compound?
A: 100%

Q: And the “Survival rate (%)” value ([1]; 50 mg/kg)?
A: 100%

Q: What about the “Survival rate (%)” value ([1]; 100 mg/kg) of the same compound?
A: 100%

Q: And the “toxicity on dissection (size and morphology of each organ)” value ([1]; intraperitoneally 10 times at 100 mg/kg)?
A: did not induce serious toxicity

Q: What about the “effect on behavior of mice in open field (time in center zone, speed, total moving distance)” value [2] of the same compound?
A: did not affect the behavior of mice in all groups
